Data on three compounds can be found in US6465476B1, “Immuno-modulator exhibiting antimicrobial and anti-mycrobacterial activities, method for producing the same and pharmaceutical preparation” (priority 1997, dated 2002).

The subject of data set [1] is tuberculosis mycobacteria H37Rv (USSR H37Rv). It counts as in vivo, tuberculosis mycobacteria; mice of the CBA line. The settings on record: USSR H37Rv.
The conditions of data set [2]: in vivo; cited from earlier work.
Data set [3] has as its system Tubazide-resistent H37Rv. It counts as in vivo, tuberculosis mycobacteria; mice of the CBA line. The settings on record: Tubazide-resistent H37Rv.
Data set [4] deals with antibody-forming cells (AFC) in the spleen. Kind of data set: Humoral immunity, localized-in-gel hemolysis, AFC accumulation in spleen of immunized mice. It counts as in vivo, hybrid mice F1 (CBA/C57BL6). The procedure: The influence on humoral immunity was studied using the method of localized-in-gel hemolysis. […] On the 5th day the number of antibody-forming cells (AFC) in the spleen of the mice was calculated and the immune response stimulation index was determined as the ratio of AFC number in the test group to the AFC number in the control group. The respective data are represented in Table 2.

Data set [5] concerns agent of leprosy (mycobacteria of leprosy). The settings on record: leprosy patients.
For data set [6], the system named is Kyp-4 strain of leprosy mycobacteria. Kind of data set: Antileprous activity in mice infected by Shepard's procedure. It counts as in vivo, leprosy mycobacteria; male mice of the CBA line. The settings on record: after six months; isophonum dose 2.5 mg/kg. The source says:
Antileprous activity of isophonum as compared with that of diuciphonum was studied on male mice of the CBA line infected with the laboratory Kyp-4 strain of leprosy mycobacteria taken in an amount of 5000 and introduced intraplantedly by Shepard's procedure. The experiment lasted six months from the 7th of February to the […] 1996. Observed were 5 groups of mice with 15 mice in each group. All the animals were kept under the same conditions of the vivarium on a standard diat.
The first group (controls): during six months of the experiment the mice received 0.5 ml of a starch suspension through a probe five times a week. After six months the animals were killed through a cervical dislocation of backbone, the organs were subjected to a bacterioscopic investigation, no pathologic deviations characteristic of any of the groups were found. The bacteriscopic investigation of the infected site was carried out by grinding the mouse foot in 2 ml of 0.1 percent solution of albumin, making a smear from 0.01 ml of the suspenstion and painting it by Ziel-Nielson's procedure and counting the number of leprosy micobacteria in 60 fields of vision to determine the number of micobacteria per mouse in each group.

In data set [7] the test system is human mononucleator cells (T-lymphocytes). Kind of data set: Proliferation of T-lymphocytes in cell culture in vitro (3H-thymidine). It counts as cell-based. As for the experimental part:
The influence of the test compound on the proliferation of T-lymphocytes was studied on a model in vitro. To this end human mononucleator cells were preliminarily incubated during three hours in the presence of different concentrations of each test substance. Each test substance was studied over a wide range of its concentrations, that is from […]. As a negative control there was added a physiological 0.9 percent solution of NaCl. The results of the influence of novel compoubds on the intensity of proliferation of human lymphocytes in the cell culture in vitro are represented in Table 3.

Data set [8] concerns macrophages. Kind of data set: Phagocytic activity of macrophages (clearance from blood). It counts as in vivo, mice. The settings on record: 500 μg per mouse per os. The source says: The influence of the preparations in question on the phagocytic activity of macrophages was studid from clearence of the carcass in blood taken from the retroorbital sinus of mice that received the preparations per os. The results were estimated on the phagocytic index α (see Table 4).

The subject of data set [9] is antibody-forming cells (AFC) in the spleens. Kind of data set: Antibody-forming cells in the spleen, immunodeficiency caused by irradiation (Jeme-Nordin's procedure). Particulars: irradiated mice 4 Gy. It counts as in vivo, mice F1 (CBA×C57BL/6). The procedure:
Determination of immunotropic activity of isophonum was carried out. Immunotropic activity of isophonum was determined on a model of immunodeficiency caused by irradiation. To create an immunodeficient state the mice F1 (CBA×C57BL/6) were irradiated with gamma-rays on a radioterapeutic apparatus in a dose of 4 Gy (Gy is the irradiation unit gray) at an irradiation dose power of 0.55 Gr/min. The number of antibody-forming cells (AFC) in the spleens was calculated by Jeme-Nordin's procedure. Isophonum and diuciphonum were introduced per os over a wide range of doses. The investigation results are represented in Table 1.

For data set [10] the following is noted: due to impurities contained therein; cited from earlier work.
The mark [11] stands for this setting: after three months, 0.6 g daily.

Where two headings read alike, the source gives them in different places.

On to `NNC(=O)c1ccncc1` [Tubazide], for which the Damage index in data set [1] (100 μg per mouse) is 2.16 ± 0.17; in data set [1] (200 μg per mouse) it was 2.11 ± 0.18; in data set [3] (100 μg per mouse), 2.44 ± 0.24; in data set [3] (200 μg per mouse), 2.01 ± 0.18. For the same compound, the “Weight of the lung” value in [1] (100 μg per mouse) was 586.4 ± 47.2; in data set [1] (200 μg per mouse), 550.6 ± 46.4; in [3] (100 μg per mouse), 628.7 ± 48.4; in [3] (200 μg per mouse), 580.4 ± 46.4. The Life duration in [1] (200 μg per mouse) is recorded as 32.2 ± 4.4; in data set [3] (100 μg per mouse), 23.7 ± 2.4; in data set [3] (200 μg per mouse) it was 30.2 ± 2.8. Moreover, in data set [2], the toxicity is on record as 150 mg/kg.

With `Cc1[nH]c(=O)[nH]c(=O)c1S(=O)(=O)Nc1ccc(S(=O)(=O)c2ccc(NS(=O)(=O)c3c(C)[nH]c(=O)[nH]c3=O)cc2)cc1` [Diuciphonum, reference compound], the “AFC-number in the spleen” value in [4] (500 μg per mouse per os in starch suspension, 5th day after immunization) was 2250 ± 125; in data set [9] (10 μg per mouse per os) it was 768 ± 123; in data set [9] (100 μg per mouse per os), 870 ± 119; in data set [9] (1000 μg per mouse per os) it was 647 ± 64. In addition, the “Immune response stimulation index” value worked out at 4.5 in data set [4] (500 μg per mouse per os, ratio of AFC test group to control group); 2.5 ± 0.2 in data set [9] (10 μg per mouse per os); 2.9 ± 0.12 in data set [9] (100 μg per mouse per os); 2.1 ± 0.2 in [9] (1000 μg per mouse per os). Further, the B-lymphocytes in data set [5] (after one month, 0.6 g daily) is recorded as 8.4 ± 0.6; in [5] (setting [11]), 9.0 ± 0.3; in [5] (before treatment), 6.3 ± 0.3. Also, the T-helpers is reported as 32.4 ± 2.0 in [5] (after one month, 0.6 g daily); 36.9 ± 2.3 in data set [5] (setting [11]); 16.8 ± 0.2 in data set [5] (before treatment). In addition, the T-lymphocytes in [5] (after one month, 0.6 g daily) is listed as 50.5 ± 2.1; in [5] (setting [11]) it was 55.4 ± 2.4; in data set [5] (before treatment) it was 30.4 ± 0.4. Besides, the T-suppressors is recorded as 20.1 ± 0.6 in [5] (after one month, 0.6 g daily); 20.0 ± 0.5 in data set [5] (setting [11]); 17.0 ± 0.4 in [5] (before treatment). Moreover, the “Th/Ts (immunoregulatory index)” value was 1.6 ± 0.1 in data set [5] (after one month, 0.6 g daily); 1.8 ± 0.4 in data set [5] (setting [11]); 1.0 in [5] (before treatment). Further, the Damage index in [1] (dose not given) is given as 2.31 ± 0.24; in data set [3] (dose not given), 2.27 ± 0.19. The Life duration in data set [1] (dose not given) was 25.1 ± 2.8; in data set [3] (dose not given) it was 24.9 ± 2.4. Moreover, the “Weight of the lung” value in data set [1] (dose not given) is on record as 580.4 ± 50.7; in data set [3] (dose not given) it was 602.7 ± 70.2. In [6], the “Number of mycobacteria in the foot × 10^6” value is reported as 0.048 ± 0.007 × 10^6. Also, in [6], the “Percentage of infected animals” value worked out at 60%. Also, the “Intensity of involvement of 3H-thymidine in DNA of cultivated cells, PHA-activated” value is given as 22811 impulse per minute in data set [7] (0.01 μg/ml); 24214 impulse per minute in [7] (0.03 μg/ml); 28946 impulse per minute in [7] (0.1 μg/ml); 26400 impulse per minute in data set [7] (1 μg/ml); 20150 impulse per minute in data set [7] (5 μg/ml). The “Intensity of involvement of 3H-thymidine in DNA of cultivated cells, Spontaneous” value in [7] (0.01 μg/ml) amounted to 860 impulse per minute; in data set [7] (0.03 μg/ml), 850 impulse per minute; in data set [7] (0.1 μg/ml) it was 804 impulse per minute; in data set [7] (1 μg/ml), 799 impulse per minute; in data set [7] (5 μg/ml), 800 impulse per minute. Besides, in data set [2], the toxicity is listed as 2600 mg/kg. Besides, in [8], the Phagocytic index came out at 5.18 ± 0.04. Further, the “Phagocytic index, percent of controls” value in data set [8] (controls 100%) is listed as “(123%)”.

Take `Cc1[nH]c(=O)[nH]c(=O)c1S(=O)(=O)NNC(=O)c1ccncc1` [N-(6-methyl-2,4-dioxo-1,2,3,4-tetrahydro-5-pyrimidinsulfon)-N′-isonicotinoylhydrazide]: in [10], the “behaviour on prolonged storage” value is “does not withstand prolonged storage conditions”.
